This is an account of results in patent US11220527B2, “Peptides derived from the propeptide NTSR3 and their use in the treatment of depression” (CENTRE NATIONAL DE LA RECHERCHE SCIENTIFIQUE, priority 2016, dated 2022).

Where no end group is shown, it is not given here.

Assay [1] in a line: Learned helplessness test (LHT). The class given is in vivo. The note with it: mice, bolus of 100 μL of a 10^-6 M solution 30 minutes before conditioning, FIG. 4. The protocol: Learned resignation or learned helplessness is a model based on the repeated administration of electric shocks to induce a resigned state in the animal.
The apparatus comprises two compartments separated by a sliding door and with a floor consisting of a metal grid through which the electrical pulses are administered. The learned helplessness protocol is divided into two stages, an animal conditioning stage and a test stage.
The conditioning was carried out over a period of four days during which time the mice received 360 non-avoidable electric shocks of 0.3 mA for one hour (the door, separating the two compartments, being closed). The shocks lasted for 2 seconds and an interval of 8 seconds was respected between each shock. This conditioning step leads to a phenomenon of helplessness in animals.
On the day of the test, the mice were placed in the same compartments but with a possibility of escaping the shock. The test counted 30 trials. During the administration of the shock, the door separating the two compartments opened, allowing the animals to flee. When the animal changes compartment the test is finished and the shock stops. […] This test made it possible to record the escape latencies of the animals. The thirty tests were then grouped by 5 and the average escape time was calculated. […]

The target in a further assay is T1, TREK-1 channel (Homo sapiens, UniProt O95069).
T1 sequence (O95069 1-426): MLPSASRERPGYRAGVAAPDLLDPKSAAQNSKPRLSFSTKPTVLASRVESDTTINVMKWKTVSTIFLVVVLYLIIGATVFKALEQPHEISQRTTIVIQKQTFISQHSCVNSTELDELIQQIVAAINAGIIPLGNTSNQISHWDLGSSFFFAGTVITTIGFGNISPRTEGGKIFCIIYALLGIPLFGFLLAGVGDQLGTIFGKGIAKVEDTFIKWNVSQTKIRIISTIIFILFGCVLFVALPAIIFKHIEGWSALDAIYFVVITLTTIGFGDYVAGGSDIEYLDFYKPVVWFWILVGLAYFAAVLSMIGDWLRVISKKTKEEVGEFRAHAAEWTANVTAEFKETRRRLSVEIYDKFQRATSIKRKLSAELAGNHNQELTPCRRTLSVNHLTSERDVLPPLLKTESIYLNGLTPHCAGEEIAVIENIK
Kind of assay: Whole-cell patch clamp of TREK-1 channel activity in hTREK-1/HEK293 cells. The assay is classed as cell-based. The arrangement: expressed in transfected cells. The note with it: dose-response measured at 0 mV, sigmoidal fit, FIG. 2; read-out: half-effect concentration (IC50) of TREK-1 channel activity inhibition. As to the method:
All experiments measuring the effect of spadin analogs and spadin were performed on ßTC3 or LNCaP or HEK293 cells stably transfected with the TREK-1 channel, hTREK-1/HEK293. The hTREK-1/HEK293 cell line was prepared in the laboratory. These cells also express a reporter gene: E-Green Fluorescent Protein (EGFP) enabling their visualization.
These cells were seeded at a density of 20,000 cells/dish of 35 mm diameter, 24 to 72 hours before being used.
The HEK293 cells were cultured in DMEM medium (Gibco)/10% fetal calf serum (FCS, ICN)/1% streptomycin+penicillin mixture (Gibco)/1% glutamax (Gibco)/0.5 mg/mL of G418 (Sigma) at 37° C. in the presence of 5% CO2.
The LNCaP cells were cultured in DMEM medium (Gibco)/10% fetal calf serum (FCS, ICN)/1% streptomycin+penicillin mixture (Gibco)/1% glutamax (Gibco)/at 37° C. in the presence of 5% CO2. […] From day 2 to day 4, the cells were measured by electrophysiological methods.
All measurements were made at room temperature, i.e. at 21-22° C. The hTREK-1/HEK293 cells were identified by the fluorescence emitted by EGFP after excitation at 480 nm. […]
The cell culture medium was replaced with a solution 150 mM NaCl, 5 mM KCl, 3 mM MgCl2, 1 mM CaCl2, 10 mM HEPES/NaOH pH 7.4 containing 10 mM tetraethylammonium chloride, 3 mM 4-aminopyridine. […] The resting potential of the membrane of the measured cell was set at −80 mV. […]
For orientation: Patch clamp records ionic current or voltage across a cell membrane.

With AVSWGLR [G/A-PE(22-28), AVSWGLR], the “escape latencies in the learned helplessness test” value in assay [1] is “capable of reducing the escape latencies”. Further, the IC50 on TREK-1 channel was found to be 0.12 nM.
